These results are taken from ChEMBL document CHEMBL3272158, “2-Azabicyclo (2.2.2)octane analogues of the prodine analgetics” (J Med Chem, 1976).

Series [1] deals with Rattus norvegicus. Nature of the series: Analgetic activity in albino rat at 100 mg/kg, ip measured 15 mins interval by tail-flick method. Format: functional, organism-based. Also noted: dose 100 mg/kg. For orientation: Thermal pain tests record how soon the animal reacts.
In series [2] the test system is Rattus norvegicus. Nature of the series: Analgetic activity in ip dosed albino rat measured 15 mins interval by tail-flick method. Format: functional. To be noted: 0.25 h.
Series [3] is described as follows: Toxicity in ip dosed albino rat. Format: organism-based. To be noted: in vivo.

Active and inactive are the calls of the source. The rule behind the calls is not given here.

As for `CCC(=O)O[C@]1(c2ccccc2)C[C@H]2CC[C@H]1N(C)C2` (relative stereo), the outcome with Rattus norvegicus [1] was inactive.

As for `CCC(=O)OC1(c2ccccc2)CCN(C)CC1C` (racemic) [ALPHAPRODINE], in the series with Rattus norvegicus [2], the ED50 is 1.4 mg/kg. This compound also gave a 50% lethal dose (LD50) in series [3] of 22 mg/kg.

Regarding `CCC(=O)O[C@@]1(c2ccccc2)C[C@H]2CC[C@H]1CN2C`, the result with Rattus norvegicus [1] was inactive.

On to `CCC(=O)O[C@@]1(c2ccccc2)C[C@H]2CC[C@H]1N(Cc1ccccc1)C2` (relative stereo), for which the outcome with Rattus norvegicus [1] was inactive.

For `CCC(=O)O[C@@]1(c2ccccc2)C[C@H]2CC[C@H]1N(C)C2` (relative stereo), the ED50 in the series with Rattus norvegicus [2] turned out to be 3.1 mg/kg. Further, the LD50 in series [3] amounted to 12.3 mg/kg. The outcome in the series on Rattus norvegicus [1] was inactive.

By ED50 is commonly meant the midpoint of the dose-response relation. Low readings indicate an effect at a small dose, high ones a need for a large dose. One may read the LD50 as the dose expected to kill half of the subjects tested.
